Test results as given in ChEMBL document CHEMBL4419173, “Small-molecule inhibitors targeting g-protein-coupled rho guanine nucleotide exchange factors” (2014).
The source made the active and inactive calls. No cut-off for these calls is given here.

What was measured:
MCF7 [1] = test: Inhibition of RhoGEF in human MCF7 cells derived mammospheres assessed as inhibition of RhoA-mediated phospho-MLC formation incubated for 24 hrs by densitometry; format: cell-based
MCF7 [2] = test: Inhibition of RhoGEF in human MCF7 cells derived mammospheres assessed as inhibition of 10% calf serum-induced RhoA-GTP formation by measuring relative RhoA-GTP level incubated for 24 hrs by densitometry (reference value: 1); format: cell-based
MCF7 [3] = test: Inhibition of RhoGEF in human MCF7 cells derived mammospheres assessed as inhibition of 10% calf serum-induced RhoA-GTP formation by measuring relative RhoA-GTP level at 2.5 uM in presence of 2.5 uM Rhosin/G04 incubated for 24 hrs by densitometry (reference value: 1); format: cell-based
MCF7 [4] = test: Inhibition of cell migration of human MCF7 cells at 2.5 to 30 uM in presence of 2.5 to 30 uM Rhosin/G04; format: functional, cell-based
Mus musculus [5] = species on record: Mus musculus; test: Inhibition of RhoGEF in mouse NIH/3T3 cells assessed as inhibition of 10% calf serum-induced Rac1-GTP formation by measuring relative Rac1-GTP level at 50 uM in presence of 50 uM Rhosin/G04 incubated for 24 hrs by densitometry (reference value: 1); format: cell-based
Mus musculus [6] = species on record: Mus musculus; test: Inhibition of RhoGEF in mouse NIH/3T3 cells assessed as inhibition of 10% calf serum-induced Cdc42-GTP formation by measuring relative Cdc42-GTP level at 50 uM incubated for 24 hrs by densitometry (reference value: 1); format: cell-based
Mus musculus [7] = species on record: Mus musculus; test: Inhibition of RhoGEF in mouse NIH/3T3 cells assessed as inhibition of 10% calf serum-induced RhoA-GTP formation by measuring relative RhoA-GTP level at 5 uM in presence of 5 uM Rhosin/G04 incubated for 24 hrs by densitometry (reference value: 1); format: cell-based
Mus musculus [8] = species on record: Mus musculus; test: Inhibition of RhoGEF in mouse NIH/3T3 cells assessed as inhibition of 10% calf serum-induced RhoA-GTP formation by measuring relative RhoA-GTP level at 30 uM incubated for 24 hrs by densitometry (reference value: 1); format: cell-based
Mus musculus [9] = species on record: Mus musculus; test: Inhibition of RhoGEF in mouse NIH/3T3 cells assessed as inhibition of 10% calf serum-induced RhoA-GTP formation by measuring reduction in RhoA-GTP level at 30 uM incubated for 24 hrs by densitometry relative to control; format: cell-based
Mus musculus [10] = species on record: Mus musculus; test: Inhibition of RhoGEF in mouse NIH/3T3 cells assessed as inhibition of 10% calf serum-induced RhoA-GTP formation by measuring reduction in RhoA-GTP level at 5 uM in presence of 5 uM Rhosin/G04 incubated for 24 hrs by densitometry relative to control; format: cell-based
Mus musculus [11] = species on record: Mus musculus; test: Inhibition of RhoGEF in mouse NIH/3T3 cells assessed as inhibition of 10% calf serum-induced Rac1-GTP formation by measuring Rac1-GTP level at 10 uM incubated for 24 hrs by densitometry relative to control (reference value: 2.86); format: cell-based
Mus musculus [12] = species on record: Mus musculus; test: Inhibition of RhoGEF in mouse NIH/3T3 cells assessed as inhibition of 10% calf serum-induced Rac1-GTP formation by measuring Rac1-GTP level at 30 uM incubated for 24 hrs by densitometry relative to control (reference value: 2.86); format: cell-based
NIH3T3 = test: Toxicity in mouse NIH/3T3 cells assessed as induction of apoptosis at 10 to 50 uM incubated for 24 hrs by Annexin-V/7-AAD staining based FACS analysis; format: cell-based; details: nih3t3, 24 h
[13] = system: Transforming protein RhoA (Homo sapiens), P61586 [Q63L]; test: Inhibition of constitutively active RhoA Q63L mutant (unknown origin) expressed in mouse NIH/3T3 cells assessed as reduction in 10% calf serum-induced phospho-MLC formation at 50 uM incubated for 24 hrs by densitometry; format: cell-based
Chain of Transforming protein RhoA (Homo sapiens), P61586 [Q63L] (P61586 whole entry Q63L): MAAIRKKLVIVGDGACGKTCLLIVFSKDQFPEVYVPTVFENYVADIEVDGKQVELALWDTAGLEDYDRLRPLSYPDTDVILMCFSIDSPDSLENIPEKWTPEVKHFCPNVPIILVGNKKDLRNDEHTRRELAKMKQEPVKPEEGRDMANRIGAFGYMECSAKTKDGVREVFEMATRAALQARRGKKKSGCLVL

[14] = system: Rho-associated protein kinase 2 (Homo sapiens), O75116 [UNDEFINED MUTATION]; test: Inhibition of constitutively active ROCK2 mutant (unknown origin) expressed in mouse NIH/3T3 cells assessed as reduction in 10% calf serum-induced focal adhesion complex formation at 530 uM by anti-vinculin antibody staining based assay; format: cell-based
Chain of Rho-associated protein kinase 2 (Homo sapiens), O75116 [UNDEFINED MUTATION] (O75116 whole entry, looked up, stated change not applied): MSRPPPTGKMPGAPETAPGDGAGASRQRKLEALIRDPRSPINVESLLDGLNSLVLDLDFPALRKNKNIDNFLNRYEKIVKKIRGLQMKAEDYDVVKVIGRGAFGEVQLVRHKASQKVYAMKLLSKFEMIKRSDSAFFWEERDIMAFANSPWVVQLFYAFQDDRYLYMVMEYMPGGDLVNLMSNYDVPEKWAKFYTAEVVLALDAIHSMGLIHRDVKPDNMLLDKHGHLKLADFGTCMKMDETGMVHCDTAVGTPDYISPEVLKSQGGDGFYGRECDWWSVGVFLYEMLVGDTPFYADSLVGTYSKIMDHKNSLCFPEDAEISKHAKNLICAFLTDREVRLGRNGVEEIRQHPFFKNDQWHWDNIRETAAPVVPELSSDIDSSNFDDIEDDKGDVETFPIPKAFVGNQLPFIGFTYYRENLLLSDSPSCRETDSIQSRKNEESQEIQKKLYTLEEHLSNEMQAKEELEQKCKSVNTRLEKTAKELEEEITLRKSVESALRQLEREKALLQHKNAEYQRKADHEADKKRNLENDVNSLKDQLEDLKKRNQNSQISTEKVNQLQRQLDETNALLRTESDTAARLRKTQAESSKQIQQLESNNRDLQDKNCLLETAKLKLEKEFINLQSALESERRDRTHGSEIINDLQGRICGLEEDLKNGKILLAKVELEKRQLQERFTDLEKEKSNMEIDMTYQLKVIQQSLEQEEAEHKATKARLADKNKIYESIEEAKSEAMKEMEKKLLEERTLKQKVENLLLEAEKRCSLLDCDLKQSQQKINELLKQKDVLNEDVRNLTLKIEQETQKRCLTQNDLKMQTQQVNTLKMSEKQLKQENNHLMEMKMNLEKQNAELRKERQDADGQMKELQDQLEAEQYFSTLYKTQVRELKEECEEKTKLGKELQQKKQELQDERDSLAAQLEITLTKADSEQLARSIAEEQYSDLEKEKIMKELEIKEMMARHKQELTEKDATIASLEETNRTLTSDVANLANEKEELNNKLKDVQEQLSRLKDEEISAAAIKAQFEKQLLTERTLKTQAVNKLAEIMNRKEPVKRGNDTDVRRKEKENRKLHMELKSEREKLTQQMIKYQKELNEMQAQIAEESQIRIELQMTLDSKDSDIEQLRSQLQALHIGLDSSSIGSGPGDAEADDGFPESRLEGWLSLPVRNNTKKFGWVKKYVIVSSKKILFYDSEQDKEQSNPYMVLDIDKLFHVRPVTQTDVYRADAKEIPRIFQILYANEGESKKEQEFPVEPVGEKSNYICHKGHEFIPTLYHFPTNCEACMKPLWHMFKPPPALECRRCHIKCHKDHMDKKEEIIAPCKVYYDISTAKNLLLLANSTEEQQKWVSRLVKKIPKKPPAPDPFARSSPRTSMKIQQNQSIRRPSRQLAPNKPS

[15] = system: Transforming protein RhoA (Homo sapiens), P61586 [Q63L]; test: Inhibition of constitutively active RhoA Q63L mutant (unknown origin) expressed in mouse NIH/3T3 cells assessed as reduction in 10% calf serum-induced actin stress fiber formation at 50 uM by rhodamine-phalloidin staining based assay; format: cell-based
Mus musculus [16] = species on record: Mus musculus; test: Inhibition of RhoGEF-mediated RhoA signaling in mouse NIH/3T3 cells assessed as inhibition of SDF1a-induced phospho-FAK formation at 10 to 30 uM incubated for 24 hrs by densitometry; format: cell-based
Mus musculus [17] = species on record: Mus musculus; test: Inhibition of RhoGEF in mouse NIH/3T3 cells assessed as inhibition of 10% calf serum-induced RhoA-GTP formation incubated for 24 hrs by densitometry; format: cell-based
[18] = molecular target: Rho GEF 11/Transforming protein RhoA (Homo sapiens) (UniProt P61586+O15085); test: Inhibition of FLAG-tagged human PDZ RhoGEF DH-PH module expressed in mouse NIH/3T3 cells assessed as reduction in human full length RhoA (1 to 193 residues) interaction with PDZ RhoGEF at 30 to 50 uM incubated for 1 hr by Western blot analysis based GST-RhoA pull-down assay; format: cell-based
[19] = molecular target: Proto-oncogene DBL/Transforming protein RhoA (Homo sapiens) (UniProt P61586+P10911); test: Inhibition of GST-tagged human DBL RhoGEF DH-PH module expressed in mouse NIH/3T3 cells assessed as reduction in human full length RhoA (1 to 193 residues) interaction with DBL RhoGEF at 10 to 50 uM incubated for 1 hr by Western blot analysis based His-RhoA pull-down assay; format: cell-based
[20] = molecular target: A-kinase anchor protein 13/Transforming protein RhoA (Homo sapiens) (UniProt P61586+Q12802); test: Inhibition of FLAG-tagged human LBC RhoGEF DH-PH module expressed in mouse NIH/3T3 cells assessed as reduction in human full length RhoA (1 to 193 residues) interaction with LBC RhoGEF at 10 to 50 uM incubated for 1 hr by Western blot analysis based His-RhoA pull-down assay; format: cell-based
[21] = molecular target: CDC42/Intersectin-1 (Homo sapiens) (UniProt P60953+Q15811); test: Inhibition of GST-tagged human intersectin-1 RhoGEF (1227 to 1571 residues) expressed in mouse NIH/3T3 cells assessed as reduction in human full length Cdc42 (1 to 191 residues) interaction with intersectin-1 RhoGEF at 50 to 200 uM incubated for 1 hr by Western blot analysis based pull-down assay; format: cell-based
Chain of CDC42/Intersectin-1 (Homo sapiens) (P60953 whole entry, looked up, the tested form may be a part): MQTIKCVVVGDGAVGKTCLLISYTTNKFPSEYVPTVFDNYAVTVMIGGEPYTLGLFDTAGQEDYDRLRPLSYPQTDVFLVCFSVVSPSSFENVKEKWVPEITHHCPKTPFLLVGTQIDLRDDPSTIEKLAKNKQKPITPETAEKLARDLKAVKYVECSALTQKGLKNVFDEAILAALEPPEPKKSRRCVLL
Chain of CDC42/Intersectin-1 (Homo sapiens) (Q15811 whole entry, looked up, the tested form may be a part): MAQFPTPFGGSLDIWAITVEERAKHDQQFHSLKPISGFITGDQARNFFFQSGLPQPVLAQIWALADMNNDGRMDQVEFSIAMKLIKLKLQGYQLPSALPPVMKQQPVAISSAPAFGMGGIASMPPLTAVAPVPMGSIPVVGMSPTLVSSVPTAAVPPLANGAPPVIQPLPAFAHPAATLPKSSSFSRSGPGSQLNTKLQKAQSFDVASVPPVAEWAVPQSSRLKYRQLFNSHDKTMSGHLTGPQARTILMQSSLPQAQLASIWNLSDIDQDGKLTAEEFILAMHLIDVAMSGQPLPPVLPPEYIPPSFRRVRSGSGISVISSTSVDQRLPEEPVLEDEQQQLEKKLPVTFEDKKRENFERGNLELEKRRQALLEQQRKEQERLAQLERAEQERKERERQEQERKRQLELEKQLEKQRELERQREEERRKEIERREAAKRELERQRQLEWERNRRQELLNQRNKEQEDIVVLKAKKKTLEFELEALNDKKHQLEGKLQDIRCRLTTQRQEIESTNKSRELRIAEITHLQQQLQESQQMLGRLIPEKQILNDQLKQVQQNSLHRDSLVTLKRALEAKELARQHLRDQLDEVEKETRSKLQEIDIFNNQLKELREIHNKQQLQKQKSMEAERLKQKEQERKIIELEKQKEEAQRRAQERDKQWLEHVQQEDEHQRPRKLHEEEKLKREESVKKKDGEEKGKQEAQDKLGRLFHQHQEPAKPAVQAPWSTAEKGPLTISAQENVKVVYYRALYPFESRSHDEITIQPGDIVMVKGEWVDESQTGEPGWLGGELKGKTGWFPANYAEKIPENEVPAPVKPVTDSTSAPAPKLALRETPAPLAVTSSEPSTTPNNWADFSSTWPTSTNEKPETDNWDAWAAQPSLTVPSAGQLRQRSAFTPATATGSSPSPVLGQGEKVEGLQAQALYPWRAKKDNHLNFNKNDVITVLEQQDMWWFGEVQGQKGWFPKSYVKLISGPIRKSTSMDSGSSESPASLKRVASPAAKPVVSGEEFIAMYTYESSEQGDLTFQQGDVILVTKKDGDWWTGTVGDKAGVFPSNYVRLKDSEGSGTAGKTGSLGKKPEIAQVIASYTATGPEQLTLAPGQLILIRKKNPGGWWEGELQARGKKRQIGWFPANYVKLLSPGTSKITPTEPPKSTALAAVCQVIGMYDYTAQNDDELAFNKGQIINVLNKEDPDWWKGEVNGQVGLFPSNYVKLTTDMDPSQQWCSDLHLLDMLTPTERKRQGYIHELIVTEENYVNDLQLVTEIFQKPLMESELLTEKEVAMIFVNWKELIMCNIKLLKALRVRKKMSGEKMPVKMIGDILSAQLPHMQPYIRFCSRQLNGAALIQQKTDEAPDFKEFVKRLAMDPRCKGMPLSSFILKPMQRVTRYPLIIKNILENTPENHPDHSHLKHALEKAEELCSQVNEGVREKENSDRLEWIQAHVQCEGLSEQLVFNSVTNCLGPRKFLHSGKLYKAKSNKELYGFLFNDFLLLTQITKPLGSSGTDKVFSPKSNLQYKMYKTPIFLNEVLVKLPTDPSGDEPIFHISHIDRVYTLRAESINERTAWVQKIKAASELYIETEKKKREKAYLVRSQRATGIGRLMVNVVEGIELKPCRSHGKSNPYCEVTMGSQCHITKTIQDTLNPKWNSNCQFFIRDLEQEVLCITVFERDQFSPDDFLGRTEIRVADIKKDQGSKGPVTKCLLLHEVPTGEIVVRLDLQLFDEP

[22] = molecular target: Rho GTPase-activating protein 35/Transforming protein RhoA (Homo sapiens) (UniProt P61586+Q9NRY4); test: Inhibition of human p190 expressed in mouse NIH/3T3 cells assessed as reduction in human full length RhoA (1 to 193 residues) interaction with p190 at 50 to 100 uM incubated for 1 hr by Western blot analysis based His-RhoA pull-down assay; format: cell-based

inhibition [13]: inactive
inhibition [14]: inactive
inhibition [15]: inactive
inhibition [18]: Active
inhibition [19]: inactive
inhibition [20]: inactive
inhibition [21]: inactive
inhibition [22]: inactive
Compound: Cc1cccc(COc2cccc(/C=C3\C(=O)NN(c4ccccc4)C3=O)c2)c1
inhibition (MCF7 [1]): Dose-dependent effect
inhibition (MCF7 [2]): Dose-dependent effect
fold change (FC) (MCF7 [3]): 0.27
inhibition (MCF7 [4]): Active
fold change (FC) (Mus musculus [5]): 1.19
fold change (FC) (Mus musculus [6]): 1.25
fold change (FC) (Mus musculus [7]): 0.46
fold change (FC) (Mus musculus [8]): 0.51
inhibition (Mus musculus [9]): 80%
inhibition (Mus musculus [10]): 80%
fold change (FC) (Mus musculus [11]): 1.83
fold change (FC) (Mus musculus [12]): 2.36
Activity (NIH3T3): Non-Toxic
inhibition (Mus musculus [16]): Active
inhibition (Mus musculus [17]): Dose-dependent effect
